{"source": "patent US20040028740A1", "about": "“Steroid hormones as transfer agents” (priority 2000, published 2004)", "origin": "cited, not measured here", "key": {"[1]": {"conditions": "daily doses of 200 mg and 300 mg"}}, "data": [{"smiles": "CC(=O)[C@H]1CC[C@H]2[C@@H]3CCC4=CC(=O)CC[C@]4(C)[C@H]3CC[C@]12C", "note": "[progesterone]", "values": [{"measurement": "effect on HDL-cholesterol levels", "setting": "[1]", "value": "does not affect"}, {"measurement": "effect on liver enzymes (ASAT, ALAT, AFOS)", "setting": "[1]", "value": "does not affect"}, {"measurement": "effect on sex-hormone binding-globulin (SHBG) synthesis", "setting": "[1]", "value": "does not affect"}, {"measurement": "effect on carbohydrate metabolism", "setting": "orally administered", "value": "adversely affects neither"}, {"measurement": "effect on plasma lipids", "setting": "orally administered", "value": "adversely affects neither"}]}]}
